Results published in ChEMBL document CHEMBL4507275, “Data for DCP probe BI-2545” (2021).

Experiments:
[1] = biological target: Calcium/calmodulin-dependent protein kinase type II subunit delta (Homo sapiens) (UniProt Q13557); details: Compound concentration 1000.0 nM
[2] = biological target: Phosphatidylinositol 4,5-bisphosphate 3-kinase catalytic subunit gamma isoform (Homo sapiens) (UniProt P48736); details: Compound concentration 1000.0 nM
[3] = biological target: Mitogen-activated protein kinase 8 (Homo sapiens) (UniProt P45983); details: Compound concentration 1000.0 nM
[4] = biological target: Serine/threonine-protein kinase 10 (Homo sapiens) (UniProt O94804); details: Compound concentration 1000.0 nM
[5] = biological target: Serine/threonine-protein kinase MAK (Homo sapiens) (UniProt P20794); details: Compound concentration 1000.0 nM
[6] = biological target: Serine/threonine-protein kinase Chk1 (Homo sapiens) (UniProt O14757); details: Compound concentration 1000.0 nM
[7] = biological target: Mitogen-activated protein kinase kinase kinase 5 (Homo sapiens) (UniProt Q99683); details: Compound concentration 1000.0 nM
[8] = biological target: Alpha-2B adrenergic receptor (Homo sapiens) (UniProt P18089); details: Compound concentration 10.0 uM
[9] = biological target: RAC-gamma serine/threonine-protein kinase (Homo sapiens) (UniProt Q9Y243); details: Compound concentration 1000.0 nM
[10] = biological target: Death-associated protein kinase 1 (Homo sapiens) (UniProt P53355); details: Compound concentration 1000.0 nM
[11] = test system: Phosphatidylinositol 4,5-bisphosphate 3-kinase catalytic subunit alpha isoform (Homo sapiens), P42336 [E545K]; details: Compound concentration 1000.0 nM
[12] = biological target: Calcium/calmodulin-dependent protein kinase kinase 1 (Homo sapiens) (UniProt Q8N5S9); details: Compound concentration 1000.0 nM
[13] = biological target: Cyclin-dependent kinase 9 (Homo sapiens) (UniProt P50750); details: Compound concentration 1000.0 nM
[14] = biological target: Mitogen-activated protein kinase 13 (Homo sapiens) (UniProt O15264); details: Compound concentration 1000.0 nM
[15] = biological target: Ribosomal protein S6 kinase alpha-4 (Homo sapiens) (UniProt O75676); details: Compound concentration 1000.0 nM
[16] = biological target: cGMP-dependent protein kinase 1 (Homo sapiens) (UniProt Q13976); details: Compound concentration 1000.0 nM
[17] = biological target: Serine/threonine-protein kinase PAK 4 (Homo sapiens) (UniProt O96013); details: Compound concentration 1000.0 nM
[18] = biological target: Cyclin-dependent kinase 17 (Homo sapiens) (UniProt Q00537); details: Compound concentration 1000.0 nM
[19] = biological target: Cyclin-dependent kinase 2 homolog (Plasmodium falciparum (isolate 3D7)) (UniProt P61075); details: Compound concentration 1000.0 nM
[20] = biological target: Serine/threonine-protein kinase LATS2 (Homo sapiens) (UniProt Q9NRM7); details: Compound concentration 1000.0 nM
[21] = biological target: Discoidin domain-containing receptor 2 (Homo sapiens) (UniProt Q16832); details: Compound concentration 1000.0 nM
[22] = biological target: T1, 5-hydroxytryptamine receptor 3A (Homo sapiens) (UniProt P46098); details: Compound concentration 10.0 uM
T1 sequence (whole entry): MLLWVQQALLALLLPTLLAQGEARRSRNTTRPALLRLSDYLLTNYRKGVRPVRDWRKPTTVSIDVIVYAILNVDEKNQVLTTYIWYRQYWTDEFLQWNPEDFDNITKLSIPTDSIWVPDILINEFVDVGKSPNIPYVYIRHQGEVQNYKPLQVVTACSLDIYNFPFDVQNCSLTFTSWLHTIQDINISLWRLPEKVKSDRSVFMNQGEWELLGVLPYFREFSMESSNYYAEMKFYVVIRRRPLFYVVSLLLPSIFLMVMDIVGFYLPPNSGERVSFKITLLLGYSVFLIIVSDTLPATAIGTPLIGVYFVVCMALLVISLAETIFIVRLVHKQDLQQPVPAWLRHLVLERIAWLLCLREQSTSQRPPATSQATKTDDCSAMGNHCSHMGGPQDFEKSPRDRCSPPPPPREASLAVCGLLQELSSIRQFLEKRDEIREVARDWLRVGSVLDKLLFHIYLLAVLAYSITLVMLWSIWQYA

[23] = biological target: Serine/threonine-protein kinase haspin (Homo sapiens) (UniProt Q8TF76); details: Compound concentration 1000.0 nM
[24] = biological target: Serine/threonine-protein kinase Nek10 (Homo sapiens) (UniProt Q6ZWH5); details: Compound concentration 1000.0 nM
[25] = biological target: LIM domain kinase 1 (Homo sapiens) (UniProt P53667); details: Compound concentration 1000.0 nM
[26] = biological target: G protein-coupled receptor kinase 3 (Homo sapiens) (UniProt P35626); details: Compound concentration 1000.0 nM
[27] = biological target: MAP/microtubule affinity-regulating kinase 3 (Homo sapiens) (UniProt P27448); details: Compound concentration 1000.0 nM
[28] = biological target: Calcium/calmodulin-dependent protein kinase type 1 (Homo sapiens) (UniProt Q14012); details: Compound concentration 1000.0 nM
[29] = biological target: Ribosomal protein S6 kinase alpha-1 (Homo sapiens) (UniProt Q15418); details: Compound concentration 1000.0 nM
[30] = biological target: Serine/threonine-protein kinase Sgk1 (Homo sapiens) (UniProt O00141); details: Compound concentration 1000.0 nM
[31] = biological target: Insulin receptor (Homo sapiens) (UniProt P06213); details: Compound concentration 1000.0 nM
[32] = biological target: 3-phosphoinositide-dependent protein kinase 1 (Homo sapiens) (UniProt O15530); details: Compound concentration 1000.0 nM
[33] = biological target: Macrophage-stimulating protein receptor (Homo sapiens) (UniProt Q04912); details: Compound concentration 1000.0 nM
[34] = biological target: Serine/threonine-protein kinase TAO2 (Homo sapiens) (UniProt Q9UL54); details: Compound concentration 1000.0 nM
[35] = biological target: Cyclin-dependent kinase 11B (Homo sapiens) (UniProt P21127); details: Compound concentration 1000.0 nM
[36] = biological target: Leucine-rich repeat serine/threonine-protein kinase 2 (Homo sapiens) (UniProt Q5S007); details: Compound concentration 1000.0 nM
[37] = biological target: D(1B) dopamine receptor (Homo sapiens) (UniProt P21918); details: Compound concentration 10.0 uM
[38] = biological target: Protein kinase C epsilon type (Homo sapiens) (UniProt Q02156); details: Compound concentration 1000.0 nM
[39] = biological target: Mitogen-activated protein kinase 1 (Homo sapiens) (UniProt P28482); details: Compound concentration 1000.0 nM

Sequence of Serine/threonine-protein kinase 10 (Homo sapiens) (O94804 whole entry, looked up): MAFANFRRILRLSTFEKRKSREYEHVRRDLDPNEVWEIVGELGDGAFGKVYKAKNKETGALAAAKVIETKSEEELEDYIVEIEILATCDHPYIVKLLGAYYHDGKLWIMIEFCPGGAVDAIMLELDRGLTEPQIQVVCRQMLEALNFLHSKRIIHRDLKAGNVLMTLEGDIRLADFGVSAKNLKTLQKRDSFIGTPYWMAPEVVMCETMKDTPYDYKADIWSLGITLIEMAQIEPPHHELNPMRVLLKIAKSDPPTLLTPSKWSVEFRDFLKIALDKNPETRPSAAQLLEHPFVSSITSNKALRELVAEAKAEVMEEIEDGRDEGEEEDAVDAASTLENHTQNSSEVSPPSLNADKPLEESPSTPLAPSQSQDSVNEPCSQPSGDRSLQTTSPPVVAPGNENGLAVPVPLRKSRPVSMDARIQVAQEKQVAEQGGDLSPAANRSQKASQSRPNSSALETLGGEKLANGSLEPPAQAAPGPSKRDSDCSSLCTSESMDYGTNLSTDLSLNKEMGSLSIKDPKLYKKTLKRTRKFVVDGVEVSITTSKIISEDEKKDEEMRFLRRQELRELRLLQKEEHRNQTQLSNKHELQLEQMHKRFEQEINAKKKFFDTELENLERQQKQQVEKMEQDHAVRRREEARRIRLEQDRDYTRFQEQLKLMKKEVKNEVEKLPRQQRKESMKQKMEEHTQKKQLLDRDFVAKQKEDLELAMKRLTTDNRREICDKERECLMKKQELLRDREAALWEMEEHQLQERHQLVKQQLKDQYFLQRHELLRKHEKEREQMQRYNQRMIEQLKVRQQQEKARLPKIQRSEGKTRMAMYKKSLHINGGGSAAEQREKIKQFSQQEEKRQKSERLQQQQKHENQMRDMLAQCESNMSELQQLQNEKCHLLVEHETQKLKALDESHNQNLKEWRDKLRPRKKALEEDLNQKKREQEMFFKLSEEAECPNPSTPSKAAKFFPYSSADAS
Sequence of G protein-coupled receptor kinase 3 (Homo sapiens) (P35626 whole entry): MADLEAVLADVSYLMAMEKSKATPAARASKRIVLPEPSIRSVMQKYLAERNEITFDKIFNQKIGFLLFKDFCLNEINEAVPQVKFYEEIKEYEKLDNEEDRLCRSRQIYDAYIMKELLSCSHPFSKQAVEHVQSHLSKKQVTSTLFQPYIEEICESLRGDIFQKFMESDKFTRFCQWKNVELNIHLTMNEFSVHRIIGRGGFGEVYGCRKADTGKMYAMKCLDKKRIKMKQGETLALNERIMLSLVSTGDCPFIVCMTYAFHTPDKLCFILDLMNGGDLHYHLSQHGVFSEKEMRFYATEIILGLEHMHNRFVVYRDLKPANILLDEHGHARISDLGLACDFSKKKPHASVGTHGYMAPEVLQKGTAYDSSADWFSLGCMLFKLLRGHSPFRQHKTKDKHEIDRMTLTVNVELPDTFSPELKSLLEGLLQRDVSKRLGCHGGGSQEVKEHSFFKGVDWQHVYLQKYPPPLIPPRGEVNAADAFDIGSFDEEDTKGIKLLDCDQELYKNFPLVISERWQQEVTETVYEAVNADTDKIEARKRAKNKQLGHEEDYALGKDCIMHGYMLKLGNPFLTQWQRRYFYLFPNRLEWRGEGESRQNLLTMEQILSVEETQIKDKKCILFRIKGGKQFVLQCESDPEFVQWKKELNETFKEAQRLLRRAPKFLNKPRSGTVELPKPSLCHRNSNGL
Sequence of Mitogen-activated protein kinase 13 (Homo sapiens) (O15264 whole entry): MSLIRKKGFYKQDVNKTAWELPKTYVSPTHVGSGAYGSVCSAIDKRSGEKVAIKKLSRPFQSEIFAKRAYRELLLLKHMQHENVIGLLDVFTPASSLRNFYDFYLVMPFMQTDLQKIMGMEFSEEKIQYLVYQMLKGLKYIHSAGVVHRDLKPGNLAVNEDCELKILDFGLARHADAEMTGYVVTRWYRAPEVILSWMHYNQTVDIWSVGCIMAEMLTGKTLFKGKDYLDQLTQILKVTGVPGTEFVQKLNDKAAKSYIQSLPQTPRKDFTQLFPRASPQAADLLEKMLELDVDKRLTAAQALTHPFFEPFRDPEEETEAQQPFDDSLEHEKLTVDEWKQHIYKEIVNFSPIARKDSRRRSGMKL
Sequence of Serine/threonine-protein kinase PAK 4 (Homo sapiens) (O96013 whole entry, looked up): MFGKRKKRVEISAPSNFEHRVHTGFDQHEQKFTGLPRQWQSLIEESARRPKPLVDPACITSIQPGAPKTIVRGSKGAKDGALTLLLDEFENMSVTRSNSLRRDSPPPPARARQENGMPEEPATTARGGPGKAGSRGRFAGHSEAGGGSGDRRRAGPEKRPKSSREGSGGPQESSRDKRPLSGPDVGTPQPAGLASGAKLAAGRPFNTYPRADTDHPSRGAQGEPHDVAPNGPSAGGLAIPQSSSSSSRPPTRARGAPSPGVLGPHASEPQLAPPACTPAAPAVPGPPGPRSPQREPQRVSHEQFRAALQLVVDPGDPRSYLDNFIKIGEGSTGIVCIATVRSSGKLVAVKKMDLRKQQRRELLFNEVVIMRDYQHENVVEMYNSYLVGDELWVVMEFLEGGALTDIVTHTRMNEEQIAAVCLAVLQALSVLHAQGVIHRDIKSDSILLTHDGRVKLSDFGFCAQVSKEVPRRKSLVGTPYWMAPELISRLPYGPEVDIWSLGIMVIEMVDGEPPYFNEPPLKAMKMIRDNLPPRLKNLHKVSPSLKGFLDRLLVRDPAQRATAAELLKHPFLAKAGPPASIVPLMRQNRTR
Sequence of Cyclin-dependent kinase 2 homolog (Plasmodium falciparum (isolate 3D7)) (P61075 whole entry): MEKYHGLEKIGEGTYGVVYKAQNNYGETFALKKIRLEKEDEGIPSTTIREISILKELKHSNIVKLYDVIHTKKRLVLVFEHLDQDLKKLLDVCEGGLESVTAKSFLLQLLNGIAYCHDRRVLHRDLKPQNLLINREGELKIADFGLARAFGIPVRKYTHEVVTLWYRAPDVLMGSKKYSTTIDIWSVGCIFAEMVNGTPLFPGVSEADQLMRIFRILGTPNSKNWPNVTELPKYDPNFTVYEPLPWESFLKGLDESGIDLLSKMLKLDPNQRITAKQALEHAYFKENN
Sequence of Serine/threonine-protein kinase LATS2 (Homo sapiens) (Q9NRM7 whole entry, the tested form may be a part): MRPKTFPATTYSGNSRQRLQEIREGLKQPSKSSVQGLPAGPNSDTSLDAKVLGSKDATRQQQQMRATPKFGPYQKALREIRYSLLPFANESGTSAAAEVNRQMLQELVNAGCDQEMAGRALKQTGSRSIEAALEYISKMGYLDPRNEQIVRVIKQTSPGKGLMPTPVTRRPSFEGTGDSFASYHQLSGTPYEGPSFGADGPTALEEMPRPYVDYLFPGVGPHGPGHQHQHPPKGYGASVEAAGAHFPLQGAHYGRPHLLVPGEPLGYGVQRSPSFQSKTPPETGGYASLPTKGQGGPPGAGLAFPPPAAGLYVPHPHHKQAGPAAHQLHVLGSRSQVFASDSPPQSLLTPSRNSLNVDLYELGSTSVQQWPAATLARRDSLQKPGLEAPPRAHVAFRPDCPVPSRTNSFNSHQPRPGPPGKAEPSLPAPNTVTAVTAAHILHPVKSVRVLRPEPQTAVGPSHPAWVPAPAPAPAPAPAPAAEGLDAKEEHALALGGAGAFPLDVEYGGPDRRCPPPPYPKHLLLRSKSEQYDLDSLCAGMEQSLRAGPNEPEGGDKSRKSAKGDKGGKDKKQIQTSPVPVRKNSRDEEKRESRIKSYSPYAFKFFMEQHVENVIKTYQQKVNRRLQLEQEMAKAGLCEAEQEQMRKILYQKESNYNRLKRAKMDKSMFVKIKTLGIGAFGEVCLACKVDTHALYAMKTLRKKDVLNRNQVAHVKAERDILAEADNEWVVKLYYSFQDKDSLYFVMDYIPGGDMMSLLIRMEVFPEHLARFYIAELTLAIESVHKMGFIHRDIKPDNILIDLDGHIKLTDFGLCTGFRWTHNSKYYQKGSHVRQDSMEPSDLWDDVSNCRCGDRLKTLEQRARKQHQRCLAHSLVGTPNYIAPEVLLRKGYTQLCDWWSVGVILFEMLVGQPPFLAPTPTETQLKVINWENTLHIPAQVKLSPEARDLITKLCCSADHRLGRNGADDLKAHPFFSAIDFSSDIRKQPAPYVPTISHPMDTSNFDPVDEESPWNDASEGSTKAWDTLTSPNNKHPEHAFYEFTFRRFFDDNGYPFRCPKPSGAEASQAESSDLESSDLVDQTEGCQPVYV
Sequence of Calcium/calmodulin-dependent protein kinase type 1 (Homo sapiens) (Q14012 whole entry, looked up): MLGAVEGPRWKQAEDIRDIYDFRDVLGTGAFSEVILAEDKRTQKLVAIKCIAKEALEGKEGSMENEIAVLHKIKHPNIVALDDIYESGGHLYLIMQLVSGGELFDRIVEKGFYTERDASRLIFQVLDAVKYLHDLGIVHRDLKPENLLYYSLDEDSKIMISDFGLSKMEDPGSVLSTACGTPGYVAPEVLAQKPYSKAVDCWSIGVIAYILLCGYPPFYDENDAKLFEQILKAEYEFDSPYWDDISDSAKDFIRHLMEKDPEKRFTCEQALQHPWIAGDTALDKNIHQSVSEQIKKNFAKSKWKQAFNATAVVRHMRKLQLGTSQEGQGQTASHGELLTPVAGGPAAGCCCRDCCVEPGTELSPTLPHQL
Sequence of LIM domain kinase 1 (Homo sapiens) (P53667 whole entry, looked up, the tested form may be a part): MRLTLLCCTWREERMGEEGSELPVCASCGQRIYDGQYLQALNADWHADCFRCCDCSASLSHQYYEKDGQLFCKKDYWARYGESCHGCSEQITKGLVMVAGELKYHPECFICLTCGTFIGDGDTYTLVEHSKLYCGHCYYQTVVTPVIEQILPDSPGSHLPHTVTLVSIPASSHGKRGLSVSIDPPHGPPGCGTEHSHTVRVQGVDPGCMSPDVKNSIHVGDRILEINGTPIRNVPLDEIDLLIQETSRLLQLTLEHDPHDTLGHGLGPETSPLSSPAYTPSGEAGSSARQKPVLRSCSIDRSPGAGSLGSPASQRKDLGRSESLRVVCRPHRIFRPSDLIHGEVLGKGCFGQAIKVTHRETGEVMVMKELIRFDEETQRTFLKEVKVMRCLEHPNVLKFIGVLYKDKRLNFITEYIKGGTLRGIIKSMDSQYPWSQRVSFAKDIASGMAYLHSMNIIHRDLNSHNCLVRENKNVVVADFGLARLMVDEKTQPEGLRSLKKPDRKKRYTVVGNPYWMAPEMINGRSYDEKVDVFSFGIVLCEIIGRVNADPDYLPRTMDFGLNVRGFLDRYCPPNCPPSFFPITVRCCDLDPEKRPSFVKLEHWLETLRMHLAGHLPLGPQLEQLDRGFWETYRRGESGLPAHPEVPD

Row | SMILES | residual activity [1] [%] | residual activity [2] [%] | residual activity [3] [%] | residual activity [4] [%] | residual activity [5] [%] | residual activity [6] [%] | residual activity [7] [%] | inhibition [8] [%] | residual activity [9] [%] | residual activity [10] [%] | residual activity [11] [%] | residual activity [12] [%] | residual activity [13] [%] | residual activity [14] [%] | residual activity [15] [%] | residual activity [16] [%] | residual activity [17] [%] | residual activity [18] [%] | residual activity [19] [%] | residual activity [20] [%] | also measured
1 | O=C(NC[C@@H]1[C@H]2CN(C(=O)OCc3cc(C(F)(F)F)cc(C(F)(F)F)c3)C[C@@H]12)c1ccc2[nH]nnc2c1 [BI 2545] | 100 | 76 | 90 | 100 | 100 | 92 | 13 | 25.2 | 87 | 93 | 100 | 91 | 91 | 100 | 86 | 83 | 100 | 100 | 100 | 86 | residual activity [21]: 82%; inhibition [22]: 8.82%; residual activity [23]: 84%; residual activity [24]: 73%; residual activity [25]: 100%; residual activity [26]: 90%; residual activity [27]: 100%; residual activity [28]: 77%; residual activity [29]: 83%; residual activity [30]: 100%; residual activity [31]: 83%; residual activity [32]: 96%; residual activity [33]: 100%; residual activity [34]: 86%; residual activity [35]: 100%; residual activity [36]: 91%; inhibition [37]: 21.6%; residual activity [38]: 100%; residual activity [39]: 100%
2 | Cc1nccc(COC(=O)N2C[C@@H]3[C@@H](CNC(=O)c4ccc5[nH]nnc5c4)[C@@H]3C2)n1 [BI 3017] | 100 | 89 | 84 | 100 | 98 | 100 | 95 | 1.15 | 100 | 95 | 86 | 100 | 100 | 98 | 90 | 100 | 100 | 90 | 85 | 97 | residual activity [21]: 77%; inhibition [22]: 16.4%; residual activity [23]: 91%; residual activity [24]: 92%; residual activity [25]: 100%; residual activity [26]: 70%; residual activity [27]: 95%; residual activity [28]: 93%; residual activity [29]: 96%; residual activity [30]: 100%; residual activity [31]: 84%; residual activity [32]: 100%; residual activity [33]: 100%; residual activity [34]: 91%; residual activity [35]: 100%; residual activity [36]: 100%; inhibition [37]: 16.4%; residual activity [38]: 100%; residual activity [39]: 100%
